In PubChem BioAssay (NCI):
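Five concentrations, 48 hours, 96-well plates. Here, GI50 denotes the concentration required for 50% inhibition of growth. The concentration for full growth arrest is given as TGI.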

Assays:
Assay in all cases: inhibition of tumour cell growth, NCI panel, 48 h
UACC-257 melanoma = test system: UACC-257 melanoma
786-0 renal = test system: 786-0 renal
SK-MEL-5 melanoma = test system: SK-MEL-5 melanoma
HCT-116 colon = test system: HCT-116 colon
KM12 colon = test system: KM12 colon
SF-539 CNS = test system: SF-539 CNS
SK-OV-3 ovarian = test system: SK-OV-3 ovarian
OVCAR-4 ovarian = test system: OVCAR-4 ovarian
HOP-62 NSCLC = test system: HOP-62 NSCLC
RPMI-8226 leukemia = test system: RPMI-8226 leukemia

SMILES | GI50 (UACC-257 melanoma) | TGI (UACC-257 melanoma) | GI50 (786-0 renal) | TGI (786-0 renal) | GI50 (SK-MEL-5 melanoma) | TGI (SK-MEL-5 melanoma) | GI50 (HCT-116 colon) | TGI (HCT-116 colon) | GI50 (KM12 colon) | TGI (KM12 colon) | GI50 (SF-539 CNS) | TGI (SF-539 CNS) | GI50 (SK-OV-3 ovarian) | TGI (SK-OV-3 ovarian) | GI50 (OVCAR-4 ovarian) | TGI (OVCAR-4 ovarian) | GI50 (HOP-62 NSCLC) | TGI (HOP-62 NSCLC) | GI50 (RPMI-8226 leukemia) | TGI (RPMI-8226 leukemia)
O=C1c2cccnc2C(=O)c2nc3cc(N4CCN(C5CC5)CC4)ccc3nc21 | 479 nM | 1.98 µM | 1380 nM | 4 µM | 252 nM | 0.686 µM | 789 nM | 7.12 µM | 1250 nM | 5.11 µM | 442 nM | 1.66 µM | 0.648 µM | 2.89 µM | 1270 nM | 2.55 µM | 232 nM | 1.05 µM | 2400 nM | 8.63 µM
Cc1ccc(-c2cn3ccnc3c(-c3ccc(Cl)cc3)n2)cc1 |  | > 100 µM | 966 nM | > 59.8 µM | 62.7 nM | 11.4 µM | 292 nM | > 33.8 µM | 150 nM | 16.6 µM | 42.2 nM | 1.35 µM | 0.714 µM | > 94 µM | 14700 nM | > 100 µM | 3690 nM | > 68.6 µM | 207 nM | > 39.5 µM
CC1OC(O[C@@H]2OC=C(C=O)[C@@]3(O)CC[C@H](C)[C@@H]23)C(O)C(O)C1O (some centres not stated) |  | > 100 µM |  | > 100 µM |  | > 100 µM |  | > 100 µM |  | > 100 µM |  | > 100 µM |  | > 100 µM |  | > 100 µM |  | > 100 µM |  | > 100 µM
CCCCCCCCCCCC(=O)OCC1OC(n2cc(F)c(=O)[nH]c2=O)C(NC(=O)OCc2ccccc2)C(OC(=O)CCCCCCCCCCC)C1O (configuration not stated) |  | > 100 µM |  | > 100 µM |  | > 100 µM |  | > 100 µM |  | > 100 µM |  | > 100 µM |  | > 100 µM |  | > 100 µM |  | > 100 µM |  | > 100 µM
CC[C@@H](C(=O)O)C1CC[C@H](C)C([C@@H](C)[C@H](O)[C@H](C)C(=O)[C@H](CC)C2O[C@]3(C=C[C@@H](O)[C@]4(CC[C@@](C)(C5CC[C@](O)(CC)[C@H](C)O5)O4)O3)[C@H](C)C[C@@H]2C)O1 (some centres not stated) | 293 nM | 5.88 µM | 656 nM | 7.92 µM | 180 nM | 0.86 µM | 369 nM | 16.6 µM | 893 nM | 11.9 µM | 309 nM | 3.9 µM | 3.44 µM | 31.8 µM | 657 nM | 33.7 µM | 1110 nM | 21.7 µM | 153 nM | 3.48 µM
CN(C)CCNc1c2c(c(NCCN(C)C)c3[nH]ccc13)C(=O)c1ccccc1C2=O | 4710 nM | 19 µM | 899 nM |  | 1810 nM | 3.88 µM | 281 nM |  | 347 nM | 2.26 µM | 1010 nM | 3.8 µM | 5.57 µM | 17.7 µM | 1050 nM | 3.11 µM | 894 nM | 9.27 µM | 737 nM | 2.79 µM
Cn1cccc1-c1cc(-c2cccs2)nc(N)c1C#N | > 100000 nM | > 100 µM | > 100000 nM | > 100 µM | > 100000 nM | > 100 µM | > 100000 nM | > 100 µM | > 100000 nM | > 100 µM | > 100000 nM | > 100 µM | > 100 µM | > 100 µM | > 100000 nM | > 100 µM | > 100000 nM | > 100 µM | > 100000 nM | > 100 µM
